From PMC6916019, “In vitro anti-malarial efficacy of chalcones: cytotoxicity profile, mechanism of action and their effect on erythrocytes” (Malaria Journal, 2019)
Where a name gives a salt, the structure may show the parent alone.

Assays:
[1] = system: P. falciparum chloroquine sensitive strain (MRC-2); experiment: microbe, parasite or virus in culture; settings: for % Schizont maturation inhibition ± SD (MRC-2): Conc. = 6.25 μg/mL; for % Schizont maturation inhibition ± SD (MRC-2) / P. falciparum Chloroquine^s Strain (MRC-2) IC50 / P. falciparum Chloroquine^s Strain (MRC-2) IC90: 24 h; for Selective index (SI) P.falciparum chloroquine^s (MRC-2): SI = CC50 (HeLa)/IC50 (MRC-2); for P. falciparum Chloroquine^s Strain (MRC-2) IC50 / P. falciparum Chloroquine^s Strain (MRC-2) IC90: schizont maturation, ring stage
Procedure: (§1) These strains were perpetuated in vitro in continuous culture according to the method of Trager and Jensen with slight modifications. Briefly, both sensitive and resistant strains of P. falciparum were maintained in A+ erythrocytes in RPMI-1640 medium (having glutamine, but without any sodium bicarbonate) comprising 1.00 g of dextrose, 5.94 g of HEPES buffer, 40.00 mg of gentamycin. Additionally supplemented with 5% sodium bicarbonate and 10% (v/v) inactivated human AB+ serum then incubated in gas mixture of 5% CO2, 5% O2 and 90% N2 at 37 °C. Parasitized erythrocytes at initial 5% haematocrit were suspended in above mentioned culture medium and parasitaemia was regularly checked to maintain level between 2 and 4% with further sub-culturing for parasitaemia beyond 5%. Growth and multiplication of parasite was monitored by microscopy using Giemsa-stained slides.
(§2) To obtain ring stages of the parasite, the cultures were synchronized using D-sorbitol. The cultures, with majority of ring stages, were treated with equal volume of aqueous 5% D-sorbitol for 5 min and then after centrifugation pellet were suspended in complete medium and fresh erythrocytes synchronized culture with 1% parasitaemia and 5% haematocrit were used for compound concentration response assay.
(§3) The concentration of each test compound needed to hinder multiplication of parasites by 50% (IC50) against P. falciparum strains were obtained through concentration response assay performed in 96-well sterile tissue culture plates. Synchronized parasite cultures were applied to different doses of each compound. Dilutions were performed in gentamycin-free culture medium, and incubated at 37 °C having gaseous mixture (5% CO2, 5% O2 and 90% N2) supply for 24 h. The results were expressed as IC50 values computed from HN-NonLin Regression analysis, as well as mean percentage inhibition ± standard error examined by thick smear Giemsa stained slides. %ParasiteInhibition29,30=100-TotalnumberofSchizontsintestwells/TotalnumberofSchizontsincontrolwell∗100
(§4) Parasite at ring stage was used for compound concentration response assay with parasitaemia of 1% at 5% haematocrit. […] The IC50 and IC90 values of all compounds were determined and the resistance index between the two sensitive and resistant strains was calculated (Table 2). […] The percentage inhibition in schizont maturation was also calculated after incubation of ring stage P. falciparum till 24 h at the same range of drug concentrations (Table 3).

[2] = system: P. falciparum chloroquine resistant strain (RKL-9); experiment: WHO Mark III schizont maturation inhibition assay, chloroquine resistant strain; assay type: cell-based, Plasmodium falciparum; settings: for Selective index (SI) P.falciparum chloroquine^R (RKL-9): SI = CC50 (HeLa)/IC50 (RKL-9); for Resistance Index (RI) IC50 (RKL-9)/IC50 (MRC-2): ratio of IC50 resistant / sensitive strain
Procedure: as §1, §2, §3, §4

[3] = system: haemozoin (β-haematin) production in P. falciparum cultures; experiment: Haemozoin inhibition assay in P. falciparum cultures; assay type: cell-based, Plasmodium falciparum; settings: drug near IC50 concentration, 48 h; untreated control 547.61 ± 9.52
Procedure: Briefly, the test cultures were centrifuged for 5–10 min at 1300 rpm to dispose of the culture medium. Infected erythrocyte pellet (mingled of β-haematin and erythrocyte membrane) were exposed to 0.01% saponin lysis for 10 min at 25 °C to lyse erythrocyte to release parasites. […] The haemozoin content was quantified by taking the absorbance at 400 nm and using a standard curve prepared from β-haematin. The amount of haemozoin formed in relation to control was calculated. All assays were performed in triplicate.

[4] = MTT cytotoxicity / cell viability assay; settings: human, HeLa cells
Procedure: (§5) Cytotoxicity of the compounds on mammalian cells were accomplished employing HeLa cell line (NCCS, Pune) cultured in DMEM supplemented with 10% FBS by the MTT (3-(4,5-dimethylthiazol-2-yl)-2,5-diphenyltetrazolium bromide) microenzymatic method with certain modifications [32]. Briefly, cells (10^4 cells/200 μL/well) were seeded into 96-well flat-bottom sterile tissue culture plates in complete medium. After 24 h of seeding, the test compounds at different dilutions were added and kept for another 24 h in a humidified chamber with 5% CO2 at 37 °C. Twenty microlitres of MTT (5.00 mg/mL in 1XPBS) stock solution were pipetted into each well, mixed and incubated for at least 3–4 h. After incubation, the plates were centrifuged at 1500 rpm for 5 min. The supernatant was disposed cautiously and 100 μL of DMSO were added to each well to lyse the cell and dissolve the insoluble purple formazan product into a coloured solution. Absorbance was taken at 570 nm to determine formazan formation as a measurement of cell viability. Experiments were performed in triplicate.

[5] = schizont maturation, 24 h, ring stage

Procedure for HeLa cell line: as §5
Procedure for in vitro: Briefly, fresh erythrocytes were centrifuged for 5 min at 1600 rpm for at least thrice in PBS and then the remaining pellet was re-suspended in PBS at 2% hematocrit. One hundred microlitres of this suspended pellet was added to 96-well sterile culture plate having test compounds at different desired concentrations. PBS alone (for baseline values) and 0.4% Triton X-100 in PBS (for 100% haemolysis) were employed as controls. After keeping at 37 °C for 3 h, the test samples were centrifuged and the supernatant was used for determination of the haemolytic activity quantified in terms of haemoglobin release as monitored spectrophotometrically by taking absorbance at 415 nm [33]. The experiment was done in triplicate and the mean ± SD was calculated [33, 34]. %Haemolysis=[Absorbanceofsample415nm-Absorbanceofblanksample415nm/Absorbanceofpositivecontrol415nm]∗100

Compound	% Schizont maturation inhibition ± SD (MRC-2) [1] [%]	Selective index (SI) P.falciparum chloroquine^s (MRC-2) [1]	P. falciparum Chloroquine^s Strain (MRC-2) IC50 [1] [µg/mL]	P. falciparum Chloroquine^s Strain (MRC-2) IC90 [1] [µg/mL]	HeLa Cell CC50 (HeLa cell line) [µg/mL]	% Schizont maturation inhibition ± SD (RKL-9) ([2]; Conc. = 6.25 μg/mL, 24 h) [%]	Selective index (SI) P.falciparum chloroquine^R (RKL-9) [2]	Resistance Index (RI) IC50 (RKL-9)/IC50 (MRC-2) [2]	P. falciparum Chloroquine^R Strain (RKL-9) IC50 [2, 5] [µg/mL]	P. falciparum Chloroquine^R Strain (RKL-9) IC90 [2, 5] [µg/mL]	Amount of haemozoin production [3] [ng/mL]	CC50 at 24 h [4] [µg/mL]	viability at 24 h, 12.5 µg/mL [4] [%]	hemolysis at 3 h, 12.5 μg/mL (in vitro) [%]	IC50 ([2]; Plasmodium falciparum, read-out: P. falciparum Chloroquine^R Strain (RKL-9) IC50, schizont maturation, 24 h, ring stage) [µg/mL]	IC90 ([2]; Plasmodium falciparum, read-out: P. falciparum Chloroquine^R Strain (RKL-9) IC90, schizont maturation, 24 h, ring stage) [µg/mL]	inhibition at 6.25 µg/mL ([2]; Plasmodium falciparum, Conc. = 6.25 μg/mL, 24 h, read-out: % Schizont maturation inhibition ± SD (RKL-9)) [%]
COc1cc(C(=O)/C=C/c2ccc3c(c2)OCO3)cc(OC)c1OC [Chalcone 8]	75.17 ± 12.02	7.59	0.29	1.01	2.20	77.78 ± 1.41	8.46	0.90	0.26	5.31	–	–	–	–	–	–	–
COc1cc(C(=O)C=Cc2ccc(N(C)C)cc2)cc(OC)c1OC [Chalcone 5]	58.65 ± 7.78	52.81	0.16	1.08	8.45	40 ± 20.51	36.74	1.43	0.23	0.92	–	–	–	–	–	–	–
COc1cc(OC)c(C(=O)/C=C/c2ccc(OC)c(OC)c2)c(OC)c1 [Chalcone 1]	82.43 ± 20.51	12.82	0.34	5.54	4.36	49.66 ± 25.46	18.96	0.68	0.23	1.42	–	–	–	–	–	–	–
COc1cc(C(=O)C=Cc2ccc(F)cc2)cc(OC)c1OC [Chalcone 4]	47.48 ± 17.68	5.60	0.15	0.40	0.84	57.69 ± 7.78	1.65	3.40	0.51	2.26	–	–	–	–	–	–	–
COc1ccc(C=CC(=O)c2cc(OC)ccc2OC)cc1 [Chalcone 2]	71.76 ± 10.61	8.15	0.13	0.51	1.06	58.02 ± 21.21	7.57	1.08	0.14	0.36	464.28 ± 11.9	–	–	–	–	–	–
COc1ccc(/C=C/C(=O)c2cc(OC)c(OC)c(OC)c2)cc1OC [Chalcone 7]	94.24 ± 2.21	139.18	0.11	0.46	–	85.82 ± 6.36	85.05	1.64	0.18	0.67	385.71 ± 4.76	–	–	–	–	–	–
C=C[C@H]1C[N@@]2CC[C@H]1C[C@H]2[C@H](O)c1ccnc2ccc(OC)cc12 [QNN, quinine hydrochloride, reference compound]	–	–	–	–	–	–	121.24	–	–	–	–	30.3	62.62 ± 0.06	2.16 ± 0.035	0.25	1.59	71.9 ± 16.3
O=C(/C=C/c1cc2ccccc2[nH]1)c1ccc(I)cc1 [Chalcone 10]	64.44 ± 9.90	9.40	0.20	0.89	1.88	49.62 ± 19.79	9.90	0.95	0.19	0.81	–	–	–	–	–	–	–
COc1ccc(/C=C/C(=O)c2cc(OC)c(OC)c(OC)c2)cc1 [Chalcone 6]	51.05 ± 42.42	4.74	0.35	5.23	1.66	43.85 ± 33.23	8.74	0.54	0.19	0.98	457.14 ± 38.09	–	–	–	–	–	–
COc1ccc(OC)c(C(=O)C=Cc2ccc3c(c2)OCO3)c1 [Chalcone 3]	59.26 ± 4.95	45.82	0.17	0.75	7.79	63.71 ± 2.83	26.86	1.71	0.29	1.15	–	–	–	–	–	–	–
